From paper PMC11796312, “Multifunctional, Fluorene‐Based Modulator of Cholinergic and GABAergic Neurotransmission as a Novel Drug Candidate for Palliative Treatment of Alzheimer's Disease” (Angewandte Chemie (International Ed. in English), 2024)
Where “and” joins values, the source holds several entries; their conditions need not be identical. Equal values may be shown once. Entries after “also recorded” stand apart in the source; their conditions may differ.

Tests used:
[1] = tested on: ICR-CD1 mice; test: Acute toxicity study i.p. (MTD, biochemistry, histopathology); format: in vivo; parameters: key to prostration / tremor / convulsions / hyper/hypoventilation / drop of eyelids / ataxia / stooped posture: mild (+); moderate (++); severe (+++); settings: for stooped posture: Female 1
Protocol: (§1) Toxicology and pharmacokinetic in vivo study
(§2) ICR-CD1 mice weighing 20–25 g were purchased from Velaz (Prague, Czech Republic).
(§3) They were kept in an air-conditioned room with the light from 07:00 to 19:00 hours and were allowed access to standard food and tap water ad libitum. The mice were divided into groups […]
(§4) Ethical approval statement
(§5) The experimental animals were handled under the supervision of the Ethics Committee of the […]
(§6) 706288/2023-1457) and the treatment of animals was in full accordance with ethical standards laid down in respective Czech and EU regulations.
(§7) Design of in vivo experiments
(§8) Acute toxicity study – Maximal tolerated dose, biochemical analysis, and histopathologic […]
(§9) Mice (ICR-CD1, Velaz, Prague, Czech Republic) were randomly assigned to the experimental groups of two males and two females per one applied dose of 6. 6 was administered intraperitoneally (i.p., 0.1 mL/10 g of animal weight; 1% Tween 80). Several doses were administered to identify the toxic profile of tested compounds and establish the Maximal Tolerated Dose (MTD, i.p.). Treated animals were intensively observed for signs of toxicity, such as respiratory, cardiovascular, and nervous system disability. Weight loss or reduced food consumption was assessed according to the FELASA classification[39] in the first two hours and then periodically for the subsequent 46 hours. The toxicity signs were classified according to a previously published study.[40]
(§10) All animals surviving the 48 hours were deeply euthanized by CO2 and subjected to basic macroscopic necropsy. The blood was collected for biochemical analysis, and selected organs (kidney and liver) were collected for histopathologic examination.
(§11) Venous blood was collected into heparinized tubes (Scanlab Systems, Prague, Czech Republic). Plasma was subsequently separated (3,000 × g for 10 min, 4 °C) using centrifuge U-320R (Boeco, Hamburg, Germany). The concentration of urea and creatinine and the activity of alanine aminotransferase (ALT), aspartate aminotransferase (AST), alkaline […]
(§12) phosphatase (ALP), amylase, and lactate dehydrogenase (LDH) were measured in the accredited biochemical laboratory of the Department of Clinical Biochemistry and Diagnostics, University Hospital, Hradec Kralove, Czech Republic. Statistical data analysis was performed through IBM SPSS Statistics version 26 (IBM, Armonk, NY, USA) using the Kolmogorov-Smirnov and Shapiro-Wilk tests to test data normality. Due to normally distributed data, the Student´s t-test was used to assess the differences compared with the control group (p ≤ 0.05).
(§13) Samples of the liver and kidney were used for standard histopathological examination. Organs were fixed with 10% neutral buffered formalin (Bamed s.r.o., Ceske Budejovice, Czech Republic), histologically processed, and stained with hematoxylin and eosin (both Merck) according to Pejchal et al.[41] The histopathological changes were evaluated using a BX-51 microscope (Olympus, Tokyo, Japan). […]
(§14) The time intervals
(§15) PK studies). The samples were centrifuged at 3,000 × g for 10 min (10 °C), and the plasma samples were stored at -80 °C until the HPLC analysis.

[2] = as above; format: in vivo, mice; parameters: key to prostration / tremor / convulsions / hyper/hypoventilation / drop of eyelids / ataxia / stooped posture: mild (+); moderate (++); severe (+++); settings: both sexes, ICR-CD1, mouse, in vivo, ip, male and female mice; read-out: maximal tolerated dose (MTD)
Protocol: as §1, §2, §3, §4, §5, §6, §7, §8, §9, §10, §11, §12, §13, §14, §15

[3] = 20 mg/kg i.p., Male 1, Female 1, Female 2
[4] = 40 mg/kg i.p., Male 1, Female 1, Female 2
[5] = 60 mg/kg i.p., Male 1, Male 2, Female 2
[6] = female mice, 10 mg/kg, Female 1, Female 2
[7] = female mice, 20 mg/kg, Female 1, Female 2
[8] = female mice, 40 mg/kg, Female 1, Female 2
[9] = female mice, 60 mg/kg, Female 1, Female 2
[10] = male mice, 10 mg/kg i.p., Male 1, Male 2
[11] = male mice, 20 mg/kg i.p., Male 1
[12] = male mice, 20 mg/kg i.p., Male 1, Male 2
[13] = male mice, 40 mg/kg i.p., Male 1, Male 2
[14] = male mice, 60 mg/kg i.p., Male 1, Male 2
[15] = male mice, 60 mg/kg i.p., Male 1, Male 2, 60 mg/kg

For O[C@H](CNCC1CC1)[C@H](Cc1ccccc1)NC1c2ccccc2-c2ccccc21 [Compound 6], the “signs of poisoning at MTD” value ([1]; 10 mg/kg i.p.) was “mild to moderate signs of poisoning may occur”, the “ALP, plasma” value ([1]; 10 mg/kg i.p., 48 h) was 68.4 ± 27.2 U/L and the “ALT, plasma” value ([1]; 10 mg/kg i.p., 48 h) was 29.0 ± 6.5 U/L. For the same compound, the “AST, plasma” value ([1]; 10 mg/kg i.p., 48 h) was 56.8 ± 6.6 U/L, the “Amylase, plasma” value ([1]; 10 mg/kg i.p., 48 h) was 2960 ± 500 U/L and 2955 ± 501 U/L and the “LDH, plasma” value ([1]; 10 mg/kg i.p., 48 h) was 275 ± 94 U/L. The “Urea, plasma” value ([1]; 10 mg/kg i.p., 48 h) was 33.8 ± 8.2 mg/dL, the “blood biochemistry vs control” value ([1]; 10 mg/kg i.p., 48 h, Student's t-test) was “No significant differences” and the Necropsy ([1]; 10 mg/kg i.p., 48 h, table lines in order Male 1, Male 2, Female 1, Female 2) was “no macroscopic pathology; also recorded: no findings; also recorded: mild hyperemia in the peritoneal cavity”. The “Histopathological findings, liver and renal tissue” value (from here on “Histopathological findings”) ([1]; 10 mg/kg i.p., table lines in order Male 1, Male 2, Female 1, Female 2) was “no tissue damage; also recorded: dg: mild peritoneal irritation; also recorded: no findings”, the “ALP, plasma” value ([1]; 20 mg/kg i.p., N = 3) was 60.4 ± 28.6 U/L and the “ALT, plasma” value ([1]; 20 mg/kg i.p., N = 3) was 27.0 ± 15.6 U/L. For the same compound, the “AST, plasma” value ([1]; 20 mg/kg i.p., N = 3) was 55.6 ± 6.7 U/L, the “Amylase, plasma” value ([1]; 20 mg/kg i.p., N = 3) was 3129 ± 444 U/L and the “LDH, plasma” value ([1]; 20 mg/kg i.p., N = 3) was 223 ± 38 U/L. For the same compound, the “Urea, plasma” value ([1]; 20 mg/kg i.p., N = 3) was 31.8 ± 6.7 mg/dL, the “Histopathological findings” value [1, 3] was “dg: peritonitis” and the Necropsy [1, 3] was “moderate hyperemia in the abdominal cavity”. The “ALP, plasma” value ([1]; 40 mg/kg i.p., N = 3) was 63.5 ± 26.9 U/L, the “ALT, plasma” value ([1]; 40 mg/kg i.p., N = 3) was 57.1 ± 16.5 U/L and the “AST, plasma” value ([1]; 40 mg/kg i.p., N = 3) was 82.4 ± 54.0 U/L. For the same compound, the “Amylase, plasma” value ([1]; 40 mg/kg i.p., N = 3) was 3485 ± 894 U/L, the “LDH, plasma” value ([1]; 40 mg/kg i.p., N = 3) was 511 ± 423 U/L and the “Urea, plasma” value ([1]; 40 mg/kg i.p., N = 3) was 93.6 ± 60.4 mg/dL. The “Histopathological findings” value [1, 4] was “dg: severe peritonitis”, the Necropsy [1, 4] was “dilatation of small and large intestine loops; also recorded: dilatation of the stomach, small and large” and the “ALP, plasma” value ([1]; 60 mg/kg i.p., N = 3) was 71.4 ± 23.4 U/L. For the same compound, the “ALT, plasma” value ([1]; 60 mg/kg i.p., N = 3) was 230.4 ± 140.7 U/L, the “AST, plasma” value ([1]; 60 mg/kg i.p., N = 3) was 318.0 ± 213.7 U/L and the “Amylase, plasma” value ([1]; 60 mg/kg i.p., N = 3) was 3723 ± 448 U/L. The “LDH, plasma” value ([1]; 60 mg/kg i.p., N = 3) was 1101 ± 562 U/L, the “Urea, plasma” value ([1]; 60 mg/kg i.p., N = 3) was 142.9 ± 145.2 mg/dL and the “Histopathological findings” value [1, 5] was “dg: severe peritonitis”. The Necropsy [1, 5] was “dilatation of small and large intestine loops”, the hyper/hypoventilation ([1]; female mice, 10 mg/kg i.p., lines in order Female 1, Female 2) was “+” and the drop of eyelids [1, 6] was “+”. For the same compound, the prostration [1, 6] was “+”, the tremor [1, 6] was “+ and ++” and the convulsions ([1]; female mice, 10 mg/kg, Female 2) was “+”. For the same compound, the stooped posture ([1]; female mice, 20 mg/kg) was “+”, the drop of eyelids [1, 7] was “+” and the hyper/hypoventilation [1, 7] was “+”. For the same compound, the prostration [1, 7] was “++”, the tremor [1, 7] was “+ and ++” and the “weight at 24 h (%)” value [1, 7] was -4.2% and -1.8%. For the same compound, the “weight at 48 h (%)” value [1, 7] was -6.5% and 0.0%, the drop of eyelids [1, 8] was “+” and the hyper/hypoventilation [1, 8] was “++”. The tremor [1, 8] was “+”, the “weight at 24 h (%)” value [1, 8] was -4.5% and -3.5% and the “weight at 48 h (%)” value [1, 8] was -9.1% and -7.1%. For the same compound, the stooped posture ([1]; female mice, 60 mg/kg) was “+”, the drop of eyelids [1, 9] was “+” and the hyper/hypoventilation [1, 9] was “++”. For the same compound, the tremor [1, 9] was “+”, the “weight at 24 h (%)” value [1, 9] was -5.0% and -6.6% and the mortality ([1]; female mice, 60 mg/kg, Female 1, before the 48-hour check-up) was “died overnight”. The “weight at 48 h (%)” value ([1]; female mice, 60 mg/kg, Female 2) was -7.5%, the prostration [1, 10] was “+” and the tremor [1, 10] was “+”. The hyper/hypoventilation ([1]; male mice, 10 mg/kg i.p., lines in order Male 1, Male 2) was “+”, the “weight at 24 h (%)” value [1, 11] was -0.2% and the “weight at 48 h (%)” value [1, 11] was “+1.0%”. For the same compound, the ataxia [1, 12] was “+”, the drop of eyelids [1, 12] was “+” and the hyper/hypoventilation [1, 12] was “+”. The prostration [1, 12] was “++”, the tremor [1, 12] was “+” and the convulsions ([1]; male mice, 20 mg/kg i.p., Male 2) was “+++”. The mortality ([1]; male mice, 20 mg/kg i.p., Male 2, before the 24-hour check-up) was “died overnight”, the “weight at 48 h (%)” value ([1]; male mice, 40 mg/kg i.p., Male 1) was -6.7% and the drop of eyelids [1, 13] was “+”. The hyper/hypoventilation [1, 13] was “++”, the prostration [1, 13] was “++” and the tremor [1, 13] was “+”. The “weight at 24 h (%)” value ([1]; male mice, 40 mg/kg i.p., Male 1, Male 2, 40 mg/kg) was -6.1% and -7.0%, the mortality ([1]; male mice, 40 mg/kg i.p., Male 2, before the 48-hour check-up) was “died overnight” and the ataxia ([1]; male mice, 60 mg/kg i.p., Male 1) was “+”. For the same compound, the drop of eyelids [1, 14] was “+”, the hyper/hypoventilation [1, 14] was “++” and the prostration [1, 14] was “+++”. The tremor [1, 14] was “+”, the “weight at 24 h (%)” value [1, 15] was -3.6% and -10.5% and the “weight at 48 h (%)” value [1, 15] was -16.0% and -15.6%. The MTD at 48 h [2] was 10 mg/kg.
